Results from patent US20110016537A1, “Cellular model of tauopathies for lead identification and drug discovery” (Georg-August-Universitat Gottingen Stifung offentl, priority 2003, published 2011).

Experiments:
[1] = system: SHSY5Y neuroblastoma cells; experiment: Apoptosis detection (TUNEL, activated caspase-3 immunolabeling) in SHSY5Y cells; format: cell-based, human; conditions: for cells showing signs of apoptosis (TUNEL): 48 h. post transfection
Excerpt: (§1) In order to analyse apoptosis induction in SHSY5Y neuroblastoma cells transfected with wild-type and triple mutant tau, the TUNEL method was used to label fragmented nuclear DNA, a characteristic marker of apoptosis. This was combined with the assessment of a second pathomorphological criteria: shrunken cell body with sparse cytosol and rounded cell morphology. Such a combination of criteria is considered sufficient to identify positively the occurrence of apoptosis (Stadelmann and Lassmann (2000) Cell Tissue Res. 301, 19-31). Since 48 hours after transfection a significant decrease in cell number and apparent cell degeneration is observed, this timepoint was chosen for the comparative analysis. At this timepoint the mode of degeneration, if apoptotic, should have been obvious. […] In FIG. 5a, apoptotic and non-apoptotic M123-transfected cells are shown, as well as a positive 50 nM staurosporin-treated neuroblastoma control. […] Activated caspase-3 immunolabeling, however, detected 18.66±0.93% apoptotic cells in M123 transfected neuroblastoma cells vs. 3.62±1.87% in wild-type transfected cells (p<0.01, Mann-Whitney U-test). The reason for this atypical apoptosis presentation in our system is unknown and awaits further elucidation. Next, in order to assess the real biological significance of apoptosis in the process of cell elimination, specific cell-permeable caspase-3 inhibitor and cytochrome c release inhibitor (both from Calbiochem, Germany) were used. Cells were treated 24 h. post transfection immediately after counting their reference number and incubated with apoptosis inhibitors until 60 h. post transfection in order to cover the time window with the highest decrease in cell number. […]

CHO cells [2] = experiment: AT8-detected phosphorylation in CHO cells; format: cell-based, Chinese hamster; conditions: CHO cells (data not shown)
[3] = system: SHSY5Y neuroblastoma cells; experiment: Phosphoepitope immunocytochemistry (AT8, AT100, AT180) in SHSY5Y neuroblastoma cells; format: cell-based, human
Procedure: In order to examine the neurotoxicity of the mutant tau variants in human neuronal cell line, SHSY5Y neuroblastomas were used and the cell number of each preparation at 48 and 72 hours post transfection was normalized to the cell number in the same dish at 24 hours. […] The same effect was observed by the double mutants. Further, the presence of two specific pathological phosphoepitopes was tested using phosphospecific antibodies—AT8 (S202/T205 specific) and AT100 (T212/S214), the latter being exclusively specific for Alzheimer's disease NFTs and generally considered as the only AD-specific antibody by experts in the field of neuropathology. […] In the mutants (especially in the double and triple mutants) there was a very strong AT8 labeling, reaching 83.24±5.45% in M123 (FIG. 4c). […] This was accompanied by early phosphorylation, colocalizing with the initial tau aggregates. […] This mutant completely lacked a fragment which contains most phosphorylation sites of the projection domain (including the corresponding sites for AT8, AT100, AT180, AT270), thus confirming the independence of aggregation and phosphorylation. […] Another phosphoepitope that is highly specific for AD—T212/S214 (recognized by AT100 antibody), was present especially in double and triple mutants (FIG. 4d). In contrast to AT8, this immunolabeling was not observed in all aggregates, but only in those with bulky rounded or oval shape. […] Obviously, the formation of the T212/S214 phosphoepitope requires, apart from S202/T205 phosphoepitope formation (Schneider et al. (1999) Biochemistry 38, 3549-3558), also a specific conformational modification, apparently achieved with increase of mutant epitope number. In the M123 mutant 22.13±2.87% were also AT180 immunopositive (phosphoepitope T231) vs. none in wild-type tau transfectants (not shown). In order to assess the relative contribution of the aggregation, S202/T205 and T212/S214 phosphorylation to cell toxicity, multiple correlation analyses were performed. […]

CHO cells [4] = experiment: Morphological aggregate formation after transfection in CHO cells; format: cell-based, Chinese hamster; conditions: 24 hrs post transfection
Procedure: On the contrary—in areas with bulky aggregation a deficit of the normal cytoskeletal configuration was observed. In order to visualize a difference in the biophysical properties of tau and aggregating mutants, FRAP (fluorescent recovery after photobleaching) analysis was performed in CHO-cells 24 hours after transfection, using wild-type tau and the triple (M123) mutant. Tau tagged with GFP represents a perfect tool for aggregation examination in living cells in real time. Apparent differences were found between wild-type tau and the triple mutant.
Transfection of cells was performed, using the Effectene Transfection Kit (Qiagen, Germany) according to the manufacturers instructions. Following addition of 4-8 μl enhancer solution, 0.5-1 μg DNA were incubated with 10 μl Effectene and 85 μl transfection buffer. All plasmids were purified using EndoFree Maxi Kit (Qiagen, Germany).
Confocal imaging was performed with a Leica TCS SP2 confocal system fitted with an AOBS (acousto-optical beam splitter) (Leica, Germany). The objectives used were 63× water or oil immersion; adjustments were as follows: Beam Expander 3, PMT—600-700 V, pinhole 1-1.4 airy disc, zoom—variable. Luminophore excitation was performed with an Argon-ion laser at 488 nm (for GFP), GreNe laser at 543 nm (for Cy3) and HeNe 643 nm (for Cy5).

[5] = system: SHSY5Y neuroblastoma cells; experiment: Cell survival of M123-transfected SHSY5Y cells with apoptosis inhibitors; format: cell-based, human; conditions: inhibitors on M123-transfected cells from 24 h. until 60 h. post transfection
Excerpt: as §1, with “elucidation.” for “elucidation. Next, in order to assess the real biological significance of apoptosis in the process of cell elimination, specific cell-permeable caspase-3 inhibitor and cytochrome c release inhibitor (both from Calbiochem, Germany) were used. Cells were treated 24 h. post transfection immediately after counting their reference number and incubated with apoptosis inhibitors until 60 h. post transfection in order to cover the time window with the highest decrease in cell number.”

Row | Molecule | cells showing signs of apoptosis (TUNEL) [1] | AT8-detected phosphorylation (CHO cells [2]) | AT100 (T212/S214) immunolabeling [3] | AT180 (phosphoepitope T231) immunopositive cells [3] | AT8 (S202/T205) immunolabeled cells ([3]; 36 h. after transfection) | apoptotic cells by activated caspase-3 immunolabeling [1] | formation of morphologically apparent aggregates (CHO cells [4]) | cell survival [5]
1 | CN[C@@H]1C[C@H]2O[C@@](C)([C@@H]1OC)n1c3ccccc3c3c4c(c5c6ccccc6n2c5c31)C(=O)NC4 [staurosporin] | TUNEL-positive nuclei |  |  |  |  |  |  | 
2 | wild-type tau: wild-type human tau 441, SEQ ID NO.:25, used as control [reference compound] | 5.97±1.54% | only a slight pattern | did not label | none | 9.17±2.3% | 3.62±1.87% | normal MT (microtubule) association without aggregates | 87.86±12.4%
